Test results as given in patent publication US10798941B2, “Microbiocidal oxadiazole derivatives” (SYNGENTA PARTICIPATIONS AG, priority 2016, dated 2020).

Key:
[1] = test system: Puccinia recondita f. Sp. Tritici; experiment: Puccinia recondita f. sp. tritici / wheat / leaf disc preventative (brown rust); format: in vivo; conditions: foliar, 168 h, 200 ppm in the applied formulation, wheat leaf segments cv. Kanzler, preventative, inoculated 1 day after application, assessed 7 to 9 days after application, vs untreated, read-out: disease control
Method in brief: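 Wheat cv. Kanzler leaf segments on agar were sprayed with formulated compound in water, then inoculated with spores 1 day later. Incubated at 19° C, 75% rh, 12 h light/12 h dark; percent disease control versus untreated scored 7 to 9 days after application.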

Phakopsora pachyrhizi = Phakopsora pachyrhizi / soybean / leaf disc preventative (Asian soybean rust); format: in vivo; conditions: foliar, 288 h, 200 ppm in the applied formulation, soybean leaf disks, inoculated one day after application, assessed 12 to 14 days after application, vs untreated, read-out: disease control
Procedure: Leaf disks or leaf segments of various plant species are cut from plants grown in a greenhouse. The cut leaf disks or segments are placed in multiwell plates (24-well format) onto water agar. The leaf disks are sprayed with a test solution before (preventative) or after (curative) inoculation. Compounds to be tested are prepared as DMSO solutions (max. 10 mg/ml) which are diluted to the appropriate concentration with 0.025% Tween20 just before spraying. The inoculated leaf disks or segments are incubated under defined conditions (temperature, relative humidity, light, etc.) according to the respective test system. A single evaluation of disease level is carried out 3 to 14 days after inoculation, depending on the pathosystem. Percent disease control relative to the untreated check leaf disks or segments is then calculated.
Soybean leaf disks are placed on water agar in multiwell plates (24-well format) and sprayed with the formulated test compound diluted in water. One day after application leaf discs are inoculated by spraying a spore suspension on the lower leaf surface. After an incubation period in a climate cabinet of 24-36 hours in darkness at 20° C. and 75% rh leaf disc are kept at 20° C. with 12 h light/day and 75% rh. The activity of a compound is assessed as percent disease control compared to untreated when an appropriate level of disease damage appears in untreated check leaf disks (12 to 14 days after application).
The following compounds at 200 ppm in the applied formulation give at least 80% disease control in this test when compared to untreated control leaf disks under the same conditions, which show extensive disease development.

[2] = test system: Glomerella Lagenarium (Colletotrichum Lagenarium); experiment: Glomerella lagenarium (Colletotrichum lagenarium) liquid culture / cucumber / preventative (anthracnose); format: cell-based; conditions: Colletotrichum orbiculare; 20 ppm in the applied formulation; liquid culture in PDB, 24° C., inhibition of growth measured photometrically 3 to 4 days after application, vs untreated; read-out: disease control
Method in brief: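 Conidia from cryogenic storage were mixed into potato dextrose broth. This was added to compound diluted from DMSO into 0.025% Tween20, tested at 20 ppm. Plates were incubated in the dark at 24 °C and 96% relative humidity, and growth was read photometrically after 2–7 days as % activity versus untreated check.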

Structure (SMILES) | pest or weed control at 200 ppm [1] [%] | pest or weed control at 200 ppm (Phakopsora pachyrhizi) [%] | inhibition of growth at 20 ppm [2] [%]
N#Cc1cc2ncccc2n1Cc1ccc(-c2noc(C(F)(F)F)n2)cc1 [Compound 1.158, 1-[[4-[5-(trifluoromethyl)-1,2,4-oxadiazol-3-yl]phenyl]methyl]pyrrolo[3,2-b]pyridine-2-carbonitrile] | ≥ 80 | ≥ 80 | ≥ 80
FC(F)(F)c1ccn(Cc2ccc(-c3noc(C(F)(F)F)n3)cc2)n1 [Compound 1.21, 5-(trifluoromethyl)-3-[4-[[3-(trifluoromethyl)pyrazol-1-yl]methyl]phenyl]-1,2,4-oxadiazole] | ≥ 80 | ≥ 80 | ≥ 80
CC(=O)c1cccn1Cc1ccc(-c2noc(C(F)(F)F)n2)cc1 [Compound 1.59, 1-[1-[[4-[5-(trifluoromethyl)-1,2,4-oxadiazol-3-yl]phenyl]methyl]pyrrol-2-yl]ethanone] |  | ≥ 80 | ≥ 80
FC(F)(F)c1nc(-c2ccc(Cn3nnnc3-c3ccc(Cl)cc3)cc2)no1 [Compound 1.230, 3-[4-[[5-(4-chlorophenyl)tetrazol-1-yl]methyl]phenyl]-5-(trifluoromethyl)-1,2,4-oxadiazole] |  | ≥ 80 | 
COc1ccc(-c2cc(C=O)n(Cc3ccc(-c4noc(C(F)(F)F)n4)cc3)n2)cc1 [Compound 1.223, 5-(4-methoxyphenyl)-2-[[4-[5-(trifluoromethyl)-1,2,4-oxadiazol-3-yl]phenyl]methyl]pyrazole-3-carbaldehyde] |  | ≥ 80 | ≥ 80
O=Cc1ccc(-c2nnn(Cc3ccc(-c4noc(C(F)(F)F)n4)cc3)n2)cc1 [Compound 1.227, 4-[2-[[4-[5-(trifluoromethyl)-1,2,4-oxadiazol-3-yl]phenyl]methyl]tetrazol-5-yl]benzaldehyde] |  | ≥ 80 | ≥ 80
Cc1ccc(-c2nnnn2Cc2ccc(-c3noc(C(F)(F)F)n3)cc2)cc1 [Compound 1.201, 3-[4-[[5-(p-tolyl)tetrazol-1-yl]methyl]phenyl]-5-(trifluoromethyl)-1,2,4-oxadiazole] |  | ≥ 80 | 
CCOC(=O)c1cc(C2CC2)n(Cc2ccc(-c3noc(C(F)(F)F)n3)cc2)n1 [Compound 1.186, ethyl 5-cyclopropyl-1-[[4-[5-(trifluoromethyl)-1,2,4-oxadiazol-3-yl]phenyl]methyl]pyrazole-3-carboxylate] | ≥ 80 | ≥ 80 | ≥ 80
CCCc1c(C(=O)OCC)ncn1Cc1ccc(-c2noc(C(F)(F)F)n2)cc1 [Compound 1.224, ethyl 5-propyl-1-[[4-[5-(trifluoromethyl)-1,2,4-oxadiazol-3-yl]phenyl]methyl]imidazole-4-carboxylate] | ≥ 80 | ≥ 80 | ≥ 80
COC(=O)c1cccc2c1cnn2Cc1ccc(-c2noc(C(F)(F)F)n2)cc1 [Compound 1.193, methyl 1-[[4-[5-(trifluoromethyl)-1,2,4-oxadiazol-3-yl]phenyl]methyl]indazole-4-carboxylate] | ≥ 80 | ≥ 80 | ≥ 80
CCOC(=O)c1ccc2nn(Cc3ccc(-c4noc(C(F)(F)F)n4)cc3)nc2c1 [Compound 1.185, ethyl 2-[[4-[5-(trifluoromethyl)-1,2,4-oxadiazol-3-yl]phenyl]methyl]benzotriazole-5-carboxylate] |  | ≥ 80 | ≥ 80
FC(F)(F)c1nc(-c2ccc(Cn3nnnc3-c3ccccc3Br)cc2)no1 [Compound 1.152, 3-[4-[[5-(2-bromophenyl)tetrazol-1-yl]methyl]phenyl]-5-(trifluoromethyl)-1,2,4-oxadiazole] |  | ≥ 80 | ≥ 80
FC(F)(F)c1nc(-c2ccc(Cn3nnc(-c4ccccc4Br)n3)cc2)no1 [Compound 1.153, 3-[4-[[5-(2-bromophenyl)tetrazol-2-yl]methyl]phenyl]-5-(trifluoromethyl)-1,2,4-oxadiazole] |  | ≥ 80 | 
FC(F)(F)c1nc(-c2ccc(Cn3nnc4cc(Cl)c(Oc5ccc6c(c5)OCO6)cc43)cc2)no1 [Compound 1.177, 3-[4-[[6-(1,3-benzodioxol-5-yloxy)-5-chloro-benzotriazol-1-yl]methyl]phenyl]-5-(trifluoromethyl)-1,2,4-oxadiazole] |  | ≥ 80 | 
CCOC(=O)c1ccc2c(c1)nnn2Cc1ccc(-c2noc(C(F)(F)F)n2)cc1 [Compound 1.184, ethyl 1-[[4-[5-(trifluoromethyl)-1,2,4-oxadiazol-3-yl]phenyl]methyl]benzotriazole-5-carboxylate] |  | ≥ 80 | ≥ 80
FC(F)(F)c1nc(-c2ccc(Cn3cnc(SCc4ccccc4)n3)cc2)no1 [Compound 1.212, 3-[4-[(3-benzylsulfanyl-1,2,4-triazol-1-yl)methyl]phenyl]-5-(trifluoromethyl)-1,2,4-oxadiazole] | ≥ 80 | ≥ 80 | ≥ 80
Cc1nc2ccc(C(F)(F)F)cc2n1Cc1ccc(-c2noc(C(F)(F)F)n2)cc1 [Compound 1.190, 3-[4-[[2-methyl-6-(trifluoromethyl)benzimidazol-1-yl]methyl]phenyl]-5-(trifluoromethyl)-1,2,4-oxadiazole] |  | ≥ 80 | ≥ 80
CCOC(=O)c1cn(Cc2ccc(-c3noc(C(F)(F)F)n3)cc2)nc1C(F)F [Compound 1.204, ethyl 3-(difluoromethyl)-1-[[4-[5-(trifluoromethyl)-1,2,4-oxadiazol-3-yl]phenyl]methyl]pyrazole-4-carboxylate] | ≥ 80 | ≥ 80 | ≥ 80
Cc1ccc2c(nnn2Cc2ccc(-c3noc(C(F)(F)F)n3)cc2)c1C [Compound 1.198, 3-[4-[(4,5-dimethylbenzotriazol-1-yl)methyl]phenyl]-5-(trifluoromethyl)-1,2,4-oxadiazole] |  | ≥ 80 | ≥ 80
Cc1cc(O)nn1Cc1ccc(-c2noc(C(F)(F)F)n2)cc1 [Compound 1.171, 5-methyl-1-[[4-[5-(trifluoromethyl)-1,2,4-oxadiazol-3-yl]phenyl]methyl]pyrazol-3-ol] | ≥ 80 | ≥ 80 | ≥ 80
CCOC(=O)c1cnn(Cc2ccc(-c3noc(C(F)(F)F)n3)cc2)c1C(F)F [Compound 1.205, ethyl 5-(difluoromethyl)-1-[[4-[5-(trifluoromethyl)-1,2,4-oxadiazol-3-yl]phenyl]methyl]pyrazole-4-carboxylate] |  | ≥ 80 | ≥ 80
N#Cc1nn(Cc2ccc(-c3noc(C(F)(F)F)n3)cc2)c2ccccc12 [Compound 1.228, 1-[[4-[5-(trifluoromethyl)-1,2,4-oxadiazol-3-yl]phenyl]methyl]indazole-3-carbonitrile] |  | ≥ 80 | ≥ 80
N#Cc1nn(Cc2ccc(-c3noc(C(F)(F)F)n3)cc2)c2cc(F)ccc12 [Compound 1.194, 6-fluoro-1-[[4-[5-(trifluoromethyl)-1,2,4-oxadiazol-3-yl]phenyl]methyl]indazole-3-carbonitrile] |  | ≥ 80 | ≥ 80
CCOC(=O)c1cc(C2CC2)nn1Cc1ccc(-c2noc(C(F)(F)F)n2)cc1 [Compound 1.187, ethyl 5-cyclopropyl-2-[[4-[5-(trifluoromethyl)-1,2,4-oxadiazol-3-yl]phenyl]methyl]pyrazole-3-carboxylate] |  | ≥ 80 | 
FC(F)(F)c1cc(Cl)c2nnn(Cc3ccc(-c4noc(C(F)(F)F)n4)cc3)c2c1 [Compound 1.195, 3-[4-[[4-chloro-6-(trifluoromethyl)benzotriazol-1-yl]methyl]phenyl]-5-(trifluoromethyl)-1,2,4-oxadiazole] |  | ≥ 80 | 
N#Cc1cc2n(Cc3ccc(-c4noc(C(F)(F)F)n4)cc3)cccc-2n1 [Compound 1.157, 4-[[4-[5-(trifluoromethyl)-1,2,4-oxadiazol-3-yl]phenyl]methyl]pyrrolo[3,2-b]pyridine-2-carbonitrile] | ≥ 80 | ≥ 80 | ≥ 80
